Assay [1] deals with chimeric replicon with genotype 2b NS5B. The assay is described as follows: microbe, parasite or virus in culture. The assay is classed as cell-based, HCV genotype 2b. As to conditions: Hepatitis C virus, read-out: 2b chimera 5% FBS EC50.
For assay [2], the system named is HCV NS5B polymerase 1a-H77-C316Y. Nature of the assay: biochemical. On the set-up: species or system HCV genotype 1a. Conditions: ratio of enzyme IC50s, 1a H77-C316Y / 1a H77. The gist of the method:
(§1)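 Incorporation of [3H]UTP (0.284 μM), alongside 20 μM each CTP and ATP, into RNA copied from a 5 nM 2.1 kb genotype 1b negative-strand template was measured after 3 h at 30° C using purified His-tagged NS5B truncated at residue 570. Product was spermine-precipitated, filtered and scintillation-counted; nonlinear regression gave IC50.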

The target of assay [3] is T1, HCV NS5B polymerase 1a-H77-C316Y (Hepatitis C virus genotype 1a, UniProt P27958, C2736Y).
T1 construct: six-histidine tag; made in house; host or cells: E. coli
T1 sequence (P27958 2421-2990 C2736Y): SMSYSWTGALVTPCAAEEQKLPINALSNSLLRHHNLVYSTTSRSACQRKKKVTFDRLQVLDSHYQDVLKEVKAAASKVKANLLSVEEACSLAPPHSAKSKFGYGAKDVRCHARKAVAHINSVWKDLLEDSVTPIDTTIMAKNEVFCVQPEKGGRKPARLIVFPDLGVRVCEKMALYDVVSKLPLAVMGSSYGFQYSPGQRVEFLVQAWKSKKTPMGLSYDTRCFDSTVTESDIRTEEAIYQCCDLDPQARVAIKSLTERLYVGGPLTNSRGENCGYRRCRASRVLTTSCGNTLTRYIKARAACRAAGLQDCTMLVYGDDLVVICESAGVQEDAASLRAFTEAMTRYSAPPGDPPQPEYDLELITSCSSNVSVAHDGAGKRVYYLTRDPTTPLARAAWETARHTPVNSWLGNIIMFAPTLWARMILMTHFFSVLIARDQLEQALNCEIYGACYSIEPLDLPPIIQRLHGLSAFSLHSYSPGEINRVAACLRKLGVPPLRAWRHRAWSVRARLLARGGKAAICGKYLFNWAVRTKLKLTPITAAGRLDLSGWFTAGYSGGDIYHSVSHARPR
The assay is described as follows: biochemical. On the set-up: species or system HCV genotype 1a. The gist of the method:
as §1

For assay [4], the target named is T2, HCV NS5B polymerase 1a-H77 (Hepatitis C virus genotype 1a, UniProt P27958).
T2 construct: six-histidine tag; made in house; host or cells: E. coli
T2 sequence (P27958 2421-2990): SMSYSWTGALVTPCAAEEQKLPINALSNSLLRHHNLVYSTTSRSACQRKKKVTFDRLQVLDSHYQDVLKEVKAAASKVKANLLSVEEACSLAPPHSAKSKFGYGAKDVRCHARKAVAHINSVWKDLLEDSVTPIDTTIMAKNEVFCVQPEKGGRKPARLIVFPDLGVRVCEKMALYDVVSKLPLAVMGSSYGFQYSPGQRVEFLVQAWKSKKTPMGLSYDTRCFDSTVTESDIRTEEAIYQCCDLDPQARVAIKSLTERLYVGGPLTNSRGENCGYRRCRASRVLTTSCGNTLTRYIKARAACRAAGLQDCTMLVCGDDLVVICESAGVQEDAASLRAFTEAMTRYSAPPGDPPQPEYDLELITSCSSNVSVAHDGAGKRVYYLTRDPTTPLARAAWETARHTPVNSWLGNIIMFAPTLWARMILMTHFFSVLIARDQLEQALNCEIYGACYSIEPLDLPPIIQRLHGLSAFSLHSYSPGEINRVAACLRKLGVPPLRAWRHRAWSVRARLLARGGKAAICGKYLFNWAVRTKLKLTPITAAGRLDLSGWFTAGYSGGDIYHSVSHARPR
Nature of the assay: biochemical. Set-up: species or system HCV genotype 1a. As to conditions: enzyme, strain 1a H77; read-out: HCV Polymerase Strain 1a H77 IC50. The gist of the method:
as §1

In assay [5] the test system is HCV 1a-H77 subgenomic replicon. Nature of the assay: microbe, parasite or virus in culture. The assay is classed as cell-based, HCV genotype 1a. As to conditions: Hepatitis C virus, stable replicon. A general note: A replicon is a self-replicating genome or part of one, used to study replication in cells.
For assay [6], the target named is T3, HCV NS5B polymerase 1b BK strain (Hepatitis C virus genotype 1b, UniProt P26663).
T3 construct: six-histidine tag; made in house; host or cells: E. coli
T3 sequence (P26663 2420-2989): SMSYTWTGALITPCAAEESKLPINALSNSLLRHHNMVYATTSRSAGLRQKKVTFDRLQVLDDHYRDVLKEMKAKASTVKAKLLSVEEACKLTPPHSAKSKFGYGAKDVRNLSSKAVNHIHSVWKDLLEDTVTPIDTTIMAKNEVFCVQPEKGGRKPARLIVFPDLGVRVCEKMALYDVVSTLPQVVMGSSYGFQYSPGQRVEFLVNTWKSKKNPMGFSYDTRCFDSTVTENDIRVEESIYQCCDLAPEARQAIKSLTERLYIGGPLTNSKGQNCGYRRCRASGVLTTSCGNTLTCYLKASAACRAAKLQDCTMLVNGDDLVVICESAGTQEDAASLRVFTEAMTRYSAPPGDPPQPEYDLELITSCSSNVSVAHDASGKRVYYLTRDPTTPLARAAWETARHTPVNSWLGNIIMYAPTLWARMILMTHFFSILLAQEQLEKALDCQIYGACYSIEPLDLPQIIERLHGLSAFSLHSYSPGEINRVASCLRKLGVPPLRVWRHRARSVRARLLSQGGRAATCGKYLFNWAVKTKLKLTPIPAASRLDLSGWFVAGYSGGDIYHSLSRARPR
The assay is described as follows: HCV NS5B polymerase enzymatic inhibition assay, strain 1b BK. In kind it is biochemical. Conditions: enzyme, strain 1b BK; read-out: HCV Polymerase Strain 1b BK IC50. Put shortly: as §1

The test system of assay [7] is chimeric replicon with 2a-J6CF-derived NS5B. Nature of the assay: microbe, parasite or virus in culture. In kind it is cell-based, HCV genotype 2a. Conditions: Hepatitis C virus, read-out: 2a chimera 5% FBS EC50.
For assay [8], the system named is HCV 1b-BB7 subgenomic replicon. Nature of the assay: microbe, parasite or virus in culture. Conditions: Hepatitis C virus, stable replicon. In kind it is cell-based, HCV genotype 1b.
The test system of assay [9] is chimeric replicon with genotype 3a NS5B. The assay is described as follows: microbe, parasite or virus in culture. The assay is classed as cell-based, HCV genotype 3a. Conditions: Hepatitis C virus, read-out: 3a chimera 5% FBS EC50.
The subject of assay [10] is chimeric replicon with genotype 4a NS5B. Nature of the assay: microbe, parasite or virus in culture. The assay is classed as cell-based, HCV genotype 4a. Conditions: Hepatitis C virus, read-out: 4a chimera 5% FBS EC50.
The mark [11] stands for this setting: 5% FBS, absence of human plasma, read-out: Stable Replicon 1a H77 5% FBS EC50.
The mark [12] stands for this setting: strain 1a H77, 5% FBS + 40% human plasma, read-out: 1a H77 5% FBS + 40% Human Plasma EC50.
Where [13] appears, read: strain 1a H77, 5% FBS, no human plasma, read-out: 1a H77 5% FBS EC50.
The mark [14] stands for this setting: strain 1a H77, 5% FBS, read-out: 1a H77 5% FBS EC50.
Setting [15] is: strain 1b BB7, 5% FBS + 40% human plasma, read-out: 1b BB7 5% FBS + 40% Human Plasma EC50.
Setting [16] is: strain 1b BB7, 5% FBS, no human plasma, read-out: 1b BB7 5% FBS EC50.
Setting [17] is: strain 1b BB7, 5% FBS, read-out: 1b BB7 5% FBS EC50.

pEC50, pIC50: −log10 of the molar value. Read-outs that look alike come from different tables or passages of the source.

Regarding `CS(=O)(=O)NCCCN(c1cc2oc(-c3ccc(F)cc3)c(-c3ncc[nH]3)c2cc1C1CC1)S(C)(=O)=O` [Example 95, N-[5-cyclopropyl-2-(4-fluorophenyl)-3-(1H-imidazol-2-yl)-1-benzofuran-6-yl]-N-{3-[(methylsulfonyl)amino]propyl}methanesulfonamide], the pEC50 in [1] was 7.09; in assay [5] (setting [11]), 7.95; in assay [5] (setting [12]), 6.92; in assay [5] (setting [13]), 7.95; in assay [5] (setting [14]), 7.95; in [7] it was 7.48. For the same molecule, the negative logarithm of the EC50 (pEC50) in assay [8] (setting [15]) was 7.12; in [8] (setting [16]) it was 8.32; in [8] (setting [17]), 8.32; in assay [9] it was 8.24; in assay [10], 7.34. Besides, the “C316Y/1a Fold Resistance” value in [2] is recorded as 19 fold. Further, the pIC50 in assay [3] was 7.07; in [4], 8.35; in [6], 7.89.
On to `CS(=O)(=O)N(CCC(F)(F)F)c1cc2oc(-c3ccc(F)cc3)c(C3=NOCCN3)c2cc1C1CC1` [Example 118, N-[5-cyclopropyl-3-(5,6-dihydro-4H-1,2,4-oxadiazin-3-yl)-2-(4-fluorophenyl)-1-benzofuran-6-yl]-N-(3,3,3-trifluoropropyl)methanesulfonamide], for which the negative-log EC50 (pEC50) in [1] is 6.32; in assay [5] (setting [11]) it was 7.70; in assay [5] (setting [12]), 6.78; in [5] (setting [13]), 7.70; in [5] (setting [14]), 7.70; in [7], 6.64. Besides, the pEC50 was 6.60 in [8] (setting [15]); 7.59 in assay [8] (setting [16]); 7.59 in [8] (setting [17]); 7.33 in assay [9]; 6.35 in assay [10]. Moreover, in assay [2], the “C316Y/1a Fold Resistance” value amounted to 19 fold. The values for the pIC50 in [3], in assay [4] and in assay [6] were 6.94, 8.23 and 7.31, respectively.
`CC[S+]([O-])CCCN(c1cc2oc(-c3ccc(F)cc3)c(C3=NOCCN3)c2cc1C1CC1)S(C)(=O)=O` (stereo not drawn) [Example 144, N-[5-cyclopropyl-3-(5,6-dihydro-4H-1,2,4-oxadiazin-3-yl)-2-(4-fluorophenyl)-1-benzofuran-6-yl]-N-[3-(ethylsulfinyl)propyl]methanesulfonamide]: the pEC50 in [1] was 6.38; in assay [5] (setting [11]) it was 7.41; in assay [5] (setting [12]), 6.60; in assay [5] (setting [13]), 7.41; in assay [5] (setting [14]), 7.41; in assay [7], 6.42. Besides, the negative-log EC50 (pEC50) in assay [8] (setting [15]) is 6.48; in [8] (setting [16]) it was 7.43; in [8] (setting [17]), 7.43; in assay [9] it was 7.21; in [10], 6.42. In addition, the “C316Y/1a Fold Resistance” value in [2] stood at 13 fold. The values for the negative logarithm of the IC50 (pIC50) in [3], in assay [4] and in assay [6] were 7.05, 8.15 and 7.04, respectively.
On to `CS(=O)(=O)N(CCCCCO)c1cc2oc(-c3ccc(F)cc3)c(C3=NOCCN3)c2cc1C1CC1` [Example 134, N-[5-cyclopropyl-3-(5,6-dihydro-4H-1,2,4-oxadiazin-3-yl)-2-(4-fluorophenyl)-1-benzofuran-6-yl]-N-(5-hydroxypentyl)methanesulfonamide], for which the pEC50 in [1] was 7.16; in assay [5] (setting [11]) it was 8.19; in assay [5] (setting [12]) it was 7.16; in [5] (setting [13]), 8.19; in assay [5] (setting [14]), 8.19; in assay [7] it was 7.08. Besides, the pEC50 was 7.03 in assay [8] (setting [15]); 8.05 in assay [8] (setting [16]); 8.05 in assay [8] (setting [17]); 7.70 in [9]; 7.28 in [10]. In [2], the “C316Y/1a Fold Resistance” value came to 5 fold. Moreover, the pIC50 is 7.38 in [3], 8.10 in assay [4] and 7.09 in assay [6].
Take `CS(=O)(=O)N(Cc1cnc(-c2cccc(CO)c2)s1)c1ccc2c(-c3ncc[nH]3)c(-c3ccccc3)oc2c1` [Example 28, N-({2-[3-(hydroxymethyl)phenyl]-1,3-thiazol-5-yl}methyl)-N-[3-(1H-imidazol-2-yl)-2-phenyl-1-benzofuran-6-yl]methanesulfonamide]: the pEC50 in [1] was 6.25; in assay [5] (setting [11]), 6.39; in [5] (setting [12]) it was 5.00; in assay [5] (setting [13]), 6.39; in assay [5] (setting [14]), 6.39; in assay [7] it was 6.63. Moreover, the pEC50 in assay [8] (setting [15]) is 5.00; in assay [8] (setting [16]), 7.62; in assay [8] (setting [17]), 7.62; in [9], 7.84; in [10], 6.42. Also, in assay [2], the “C316Y/1a Fold Resistance” value is 5 fold. Besides, the values for the negative-log IC50 (pIC50) in assay [3], in [4] and in assay [6] were 7.55, 8.23 and 7.92, respectively.
For the molecule `CNC(=O)CCCN(c1cc2oc(-c3ccc(F)cc3)c(-c3ncc[nH]3)c2cc1C1CC1)S(C)(=O)=O` [Example 107, 4-{[5-cyclopropyl-2-(4-fluorophenyl)-3-(1H-imidazol-2-yl)-1-benzofuran-6-yl](methylsulfonyl)amino}-N-methylbutanamide], the pEC50 in [1] was 6.85; in assay [5] (setting [11]), 7.76; in assay [5] (setting [12]) it was 7.09; in [5] (setting [13]), 7.76; in assay [5] (setting [14]) it was 7.76; in assay [7], 6.87. In addition, the negative logarithm of the EC50 (pEC50) in assay [8] (setting [15]) was 7.18; in [8] (setting [16]), 7.96; in assay [8] (setting [17]) it was 7.96; in [9], 8.03; in assay [10], 6.89. The “C316Y/1a Fold Resistance” value in assay [2] was determined as 22 fold. Besides, the pIC50 in assay [3] is 6.91; in assay [4] it was 8.26; in assay [6], 7.55.
With `CS(=O)(=O)N(CCCC(F)(F)F)c1cc2oc(-c3ccc(F)cc3)c(-c3ncc[nH]3)c2cc1C1CC1` [Example 44, N-[5-cyclopropyl-2-(4-fluorophenyl)-3-(1H-imidazol-2-yl)-1-benzofuran-6-yl]-N-(4,4,4-trifluorobutyl)methanesulfonamide], the negative-log EC50 (pEC50) in assay [1] is 7.01; in assay [5] (setting [11]) it was 7.63; in assay [5] (setting [12]) it was 6.38; in [5] (setting [13]), 7.63; in assay [5] (setting [14]), 7.63; in assay [7] it was 7.03. For the same molecule, the pEC50 in assay [8] (setting [15]) is 7.09; in assay [8] (setting [16]), 7.79; in assay [8] (setting [17]) it was 7.79; in [9], 7.82; in [10] it was 6.75. Also, in [2], the “C316Y/1a Fold Resistance” value is on record as 21 fold. The negative logarithm of the IC50 (pIC50) was 6.98 in assay [3], 8.30 in assay [4] and 7.72 in assay [6].
Consider `CC(C)=CCN(c1cc2oc(-c3ccc(F)cc3)c(-c3ncc[nH]3)c2cc1C1CC1)S(C)(=O)=O` [Example 54, N-[5-cyclopropyl-2-(4-fluorophenyl)-3-(1H-imidazol-2-yl)-1-benzofuran-6-yl]-N-(3-methylbut-2-en-1-yl)methanesulfonamide], for which the pEC50 was 6.22 in assay [1]; 7.05 in [5] (setting [11]); 6.03 in assay [5] (setting [12]); 7.05 in assay [5] (setting [13]); 7.05 in [5] (setting [14]); 6.57 in assay [7]. In addition, the negative logarithm of the EC50 (pEC50) was 6.13 in assay [8] (setting [15]); 7.19 in assay [8] (setting [16]); 7.19 in assay [8] (setting [17]); 7.29 in [9]; 6.20 in [10]. Also, the “C316Y/1a Fold Resistance” value in [2] is recorded as 43 fold. For the same molecule, the pIC50 in assay [3] was 6.72; in assay [4], 8.35; in assay [6], 6.53.

Broadly, the pEC50 is the negative decadic logarithm of the EC50, by convention in mol/L. Usually pIC50 stands for the IC50 on a negative log10 scale, so that one unit is a factor of ten.
